Source: patent US10093627B2, “Tetrahydroquinoline derivatives and their use as Epac inhibitors” (Institut National de la Sante et de la Recherche Medicale …, priority 2012, dated 2018)

What was measured:
[1] = system: Epac1-induced Rap1 activation in HEK293 cells; experiment: Epac1-induced Rap1 activation, Rap1-GTP pull-down in HEK293 cells; assay type: cell-based; settings: 10 min
Method: HEK293 cells were transfected with either pcDNA3 control vector or Epac1 (see FIG. 2A).
HEK293 cells were transfected with Epac1 and 24 h after transfection, cells were preincubated or not with CE3F4 for 30 min and were then treated or not with Sp-007 (10 μM) for 10 min (see FIG. 2B).
HEK293 cells overexpressing β1AR (Beta-1 adrenergic receptors) and transfected with Epac1 were pretreated or not with CE3F4 and stimulated or not with Iso (10 μM) for 10 min (see FIG. 2C).
Amounts of Rap1-GTP were determined by pull-down assays (see Material and Methods). The bar graph represents the mean±S.E.M. of 5 (FIG. 2A, 2B) or 3 (FIG. 2C) independent experiments. Results are expressed as the percentage of unstimulated control cells.
Ras and Rap1 pull-down experiments were performed using a GST fusion protein containing respectively the Ras binding domain of Raf1-RBD and the Rap1 binding domain of Ral-GDS as previously described (Métrich et al., 2008). Cells were starved for 1 h before stimulation in MEM free with penicillin-streptomycin (1%). After stimulation, cells were lysed in RIPA buffer (50 mM Tris-HCl, pH 7.5; 500 mM NaCl; 20 mM MgCl2; 0.5% deoxycholic acid; 0.1% SDS; 1% Triton X-100; 1 mM PMSF; protease and phosphatase inhibitors) and 500 μg of protein were incubated with either GST-Raf1-RBD (for Ras) or Ral-GDS (for Rap1) coupled to glutathione-Sepharose beads (Amersham Biosciences) for 1h at 4° C. Beads were then washed three times in washing buffer (50 mM Tris-HCl, pH 7.5; 150 mM NaCl, 20 mM MgCl2, 1% Triton X-100; 0.1 mM PMSF; protease and phosphatase inhibitors). Rap1-GTP or Ras samples and corresponding total lysates were separated on SDS-PAGE gels and transferred onto a polyvinylidene difluoride (PVDF) membrane (Amersham Pharmacia Biotech).

[2] = target: T1, Epac1 (Homo sapiens, UniProt O95398); experiment: Epac1 nucleotide exchange activity, multipoint (time-course) method, bGDP-loaded GST-Rap1A; assay type: biochemical; settings: 20 μM CE3F4, single dose; 2 μM compound 007; FIG. 1
T1 construct: Recombinant human Epac1 (residues 149-881), deleted of its Dishevelled, Egl-10, and Pleckstrin (DEP) domain; made in house
T1 sequence (O95398 149-881 isoform O95398-3): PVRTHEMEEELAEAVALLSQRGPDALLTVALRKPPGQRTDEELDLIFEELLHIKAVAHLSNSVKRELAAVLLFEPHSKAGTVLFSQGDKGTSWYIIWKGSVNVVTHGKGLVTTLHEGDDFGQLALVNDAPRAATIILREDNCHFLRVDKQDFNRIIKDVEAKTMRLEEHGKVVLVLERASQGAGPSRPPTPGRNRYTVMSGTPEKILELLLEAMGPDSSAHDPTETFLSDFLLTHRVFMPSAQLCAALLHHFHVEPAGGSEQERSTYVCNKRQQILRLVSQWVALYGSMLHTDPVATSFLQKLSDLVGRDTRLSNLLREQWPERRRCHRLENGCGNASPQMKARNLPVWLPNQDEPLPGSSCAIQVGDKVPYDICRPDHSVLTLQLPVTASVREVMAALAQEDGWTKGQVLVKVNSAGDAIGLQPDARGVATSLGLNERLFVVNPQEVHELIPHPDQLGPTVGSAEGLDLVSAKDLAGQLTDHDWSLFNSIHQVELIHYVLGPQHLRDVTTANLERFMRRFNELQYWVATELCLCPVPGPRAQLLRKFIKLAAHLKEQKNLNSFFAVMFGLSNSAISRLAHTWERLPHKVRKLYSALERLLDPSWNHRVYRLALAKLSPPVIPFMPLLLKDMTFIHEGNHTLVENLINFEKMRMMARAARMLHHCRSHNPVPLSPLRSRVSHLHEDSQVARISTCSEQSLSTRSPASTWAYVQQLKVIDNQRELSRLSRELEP
Method: Epac1 nucleotide exchange activity was measured: • in the absence of compound 007, • or in the presence of 2 μM of compound 007, either alone or with 25 μM of compound 009, • or with 20 μM of CE3F4.
Variations of RFU (Relative Fluorescence Units) were studied as a function of time and fitted to single exponentials. Reported values are mean±SEM (n=3). (see Materiel and Methods).
Concerning FIG. 1, a “multipoint” (time-course) method was used. All components except the agonist (007) were mixed in a well and the exchange activity of Epac1 was initiated by injection of the agonist. GST-Rapt was preloaded with a fluorescent derivative of GDP, and the Epac1-catalyzed nucleotide exchange was measured using a large excess of non-fluorescent GDP, by taking advantage of the spectroscopic difference between free and Rap1-bound fluorescently labeled GDP. The principle of the method is similar to that reported in particular by Van den Berghe et al. (1997; Oncogene 15, 845), except that Bodipy FL-labeled GDP (bGDP) was used here, rather than 2′,3′-bis(O)—N-methylanthraniloyl-GDP (mant-GDP). […]

Inhibition of the exchange reaction induced by Epac1 plus 007 [2]: inhibited the exchange reaction
Compound: CC1CCc2c(cc(Br)c(F)c2Br)N1C=O (racemic) [CE3F4]
Effect on increase in amount of Rap1-GTP following Sp-007 treatment ([1]; CE3F4 20 μM, 30 min preincubation, Sp-007 10 μM, HEK293 transfected with Epac1, FIG. 2B): prevented the increase
Effect on Epac1-induced Rap1 activation following β1-AR stimulation by isoprenaline ([1]; Iso 10 μM, HEK293 overexpressing β1AR, transfected with Epac1, FIG. 2C): decreased
